Measured values as given in patent US20240165259A1, “BIOORTHOGONAL REACTION SUITABLE FOR CLICK/UNCLICK APPLICATIONS” (DANA-FARBER CANCER INSTITUTE, INC., priority 2021, published 2024).
Blank lines part the entries; values can stand above or below the compound they belong to.

How the values were obtained:
[1] = Retro-Cope elimination of linear alkynes 1′, 4′, 6′ with N,N-diethylhydroxylamine (Scheme 1); assay type: physicochemical; conditions: with N,N-diethylhydroxylamine (2′)
Experimental: The impact of inductively withdrawing halogen and chalcogen substituents at the propargylic and terminal positions of the alkyne were evaluated. Retro-Cope elimination reaction between propargyl ether 1′ and N,N-diethylhydroxylamine (2′) was completed in 18 hours whereas hydroamination of terminal alkyne 4′ was incomplete, even after 10 days. […] The regioselectivities induced by the propargyl and terminal alkyne substituents appeared to be reinforcing.

[2] = test system: cell surface HaloTag-GFP expressed on HEK293T cells; test: Live cell labeling experiment (confocal microscopy); assay type: cell-based; conditions: 10 μM 21′, then 10 μM 22′ for 1 hour, fixed
Experimental: Live cell labeling by hydroamination was explored. HEK293T cells were transiently transfected with a cell surface HaloTag-GFP construct, treated with 10 μM HaloTag linker-conjugated difluoropropargyl ether 21′, washed, and incubated with 10 μM TAMRA-conjugated hydroxylamine 22′ for 1 hour. The cells were then fixed and visualized by confocal microscopy.
Cell Culture: HEK-293T cells were cultured in Dulbecco's Modified Eagle Medium (DMEM, Corning®) containing 10% fetal bovine serum (FBS, Sigma), 100 units/mL penicillin, and 0.1 mg/mL streptomycin (Sigma) in a humidified chamber at 37° C. with 5% CO2. Cells were passaged and dissociated with 0.25% trypsin, 0.1% EDTA in HBSS (Corning®). Cells tested negative for […] by the MycoAlert PLUS Mycoplasma Detection Kit (Lonza) following the manufacturer's protocol.
Preparation for 12-Well Plate: Coverslips (15 mm circle, thickness 0.13-0.17 mm) were acid-washed according to the Cold Spring Harbor protocol (Fischer et al., Cold Spring Harb. Protoc. 2008:pdb.prot4988 (2008)). A coverslip was added to each well in a 12-well plate followed by an aqueous solution of poly-D-lysine (0.1 mg/mL, 30-70 kDa, 800 μL). The plate was gently shaken to distribute the solution evenly, incubated at room temperature for 1 hour, washed using 1 mL of autoclaved deionized water for each well, and dried overnight. […]

[3] = Cleavage reaction progress monitoring by 1H NMR spectroscopy; assay type: physicochemical; conditions: 4 mM enamine N-oxide, 10 mM B2(OH)4, 10% DMSO-d6/23% CD3OD/d-PBS, pH 7.4
From the text: Diboron reagents and enamine N-oxide structures in hand, the reaction kinetics were characterized and the substrate scope for the cleavage reaction was explored. A series of chromogenic probes 32″, 38″, 39″ featuring a representative series of nitrogen, oxygen, and sulfur-bearing leaving groups were obtained. Each probe was synthesized from cyclooct-2-ynol either by Mitsunobu reaction or carbamoylation with the corresponding p-nitro(thio)phenol or p-nitrophenyl isocyanate followed by hydroamination with N,N-diethylhydroxylamine. The formation of the intended products was verified by ^1H NMR spectroscopy with caffeine as an internal standard (FIG. 29A, FIG. 33, FIG. 34). […] Over the course of 24 h, iminium ion 35″ hydrolyzed to cyclooctenone 36″ and diethylamine 37″. The other substrates reacted analogously with the same quantitative formation of iminium ion 35″ at the initial time point (FIG. 29B). […]
The chromogenic probes that were prepared were intended for stopped flow kinetics experiments using UV-vis spectroscopy; however, the NMR studies precluded the use of one of these compounds for this purpose. […] Since a change in UV absorbance is contingent on p-nitroaniline formation, it could not be used or any analogous carbamate-based chromogenic or fluorogenic outputs as accurate proxies for product release. Instead, a fluorescence polarization assay was employed. […]

[4] = test system: SK-BR-3 HER2+ breast cancer cells; test: Cell viability assay (CellTiter-Glo), SK-BR-3; assay type: cell-based; conditions: Homo sapiens, SK-BR-3, 72 h, read-out: IC50, cell viability, without diboron
Experimental: Cell viability assay: SK-BR-3 or MDA-MB-231 cell were seeded at a density of 5,000-10,000 cells per well in media [100 μL, RPMI (SK-BR-3) or DMEM (MDA-MB-231) supplemented with 5% heat-inactivated human serum (Sigma), penicillin (100 units/mL), streptomycin (0.1 mg/mL)] in an opaque 96-well plate. PBS (100 μL) was added to the edge wells. The cells were incubated at 37° C. under ambient atmosphere with 5% CO2. […] The plates were incubated at 37° C. with 5% CO2 for 72 h (SK-BR-3) or 96 h (MDA-MB-231). After the plates were equilibrated at room temperature, CellTiter-Glo™ 2.0 reagent (50 μL, Promega™) was added to each well and mixed gently. The plates were incubated at room temperature for 10 min to stabilize the luminescence signal and analyzed by a microplate reader (Clariostar Plus, BMG Labtech) (FIG. 48 and FIG. 49).

[5] = test system: MDA-MB-231 HER2− breast cancer cells; test: Cell viability assay (CellTiter-Glo), MDA-MB-231; assay type: cell-based; conditions: Homo sapiens, MDA-MB-231, 96 h, read-out: IC50, cell viability, without diboron
Experimental: SK-BR-3 cells were treated with […]-100 nM trastuzumab-MMAE 61″ in the presence or absence of 50 μM B2pin2, cultured for 72 h, and assayed using the CellTiter-Glo® cell viability assay. The IC50 of the ADC was insensitive to the presence or absence of diboron and recapitulated the IC50 of MMAE alone.
This N-oxide-based drug delivery platform provides a convenient mechanism for loading drugs onto antibodies as well as an appealing alternative to existing methods for the fast and complete release of drug molecules from their carriers.
Cell culture: Cells were cultured in RPMI (SK-BR-3) or DMEM (MDA-MB-231) containing 10% FBS (Sigma), 100 units/mL penicillin, and 0.1 mg/mL streptomycin (Sigma) in a humidified chamber at 37° C. under an ambient atmosphere with 5% CO2. Cells were passaged and dissociated with 0.25% trypsin, 0.1% EDTA in HBSS (Corning). […]
Cell viability assay: SK-BR-3 or MDA-MB-231 cell were seeded at a density of 5,000-10,000 cells per well in media [100 μL, RPMI (SK-BR-3) or DMEM (MDA-MB-231) supplemented with 5% heat-inactivated human serum (Sigma), penicillin (100 units/mL), streptomycin (0.1 mg/mL)] in an opaque 96-well plate. […] The plates were incubated at room temperature for 10 min to stabilize the luminescence signal and analyzed by a microplate reader (Clariostar Plus, BMG Labtech) (FIG. 48 and FIG. 49).

[6] = target: T1, lysozyme-TAMRA conjugate 6″conj (Gallus gallus, UniProt P00698); test: Screening of diboron derivatives 27″-31″ for cleavage of conjugate 6″conj; assay type: biochemical; conditions: PBS, 1 h
T1 construct: purchased
Experimental: The impact of boron ligands on the dissociation reaction was also explored. […] Lysozyme-TAMRA conjugate 6″conj was treated with 5 or 50 μM of each diboron reagent in PBS and analyzed by in-gel fluorescence after 1 h.
A solution of diborons 27″-31″ (0.34 μL, 125 μM or 1.25 mM in DMSO; 5 or 50 μM final concentration) was added to a solution of lysozyme-fluorophore conjugate 6″conj (8 μL, 0.50 μM in PBS, pH 7.4). The reaction mixtures were incubated at room temperature in the dark. After 60 min, each reaction mixture was quenched by adding trimethylamine N-oxide (0.93 uL, 100 mM in H2O; 10 mM final concentration) and diluted with 1.6×SDS sample buffer (14.32 μL). Each solution (10 μL) was loaded onto a 15-well 12% SDS-PAGE gel. The gel was run at room temperature and at 175 V for 50 min. In-gel fluorescence was imaged with a Typhoon™ FLA 9500 (GE) at 532 nm with a photomultiplier tube (PMT) setting of 500 V (FIG. 41).

[7] = Cross reactivity: hydroxylamine under Cu-catalyzed azide-alkyne cycloaddition (CuAAC) conditions; assay type: physicochemical; conditions: alkyne S17, THPTA, CuSO4, sodium ascorbate, PBS pH 7.4, 0-4 hours, HPLC
Experimental: A solution of N,N-diethylhydroxylamine (0.8 μL, 100 mM in PBS, pH 7.4) was added to this mixture to bring the total volume to 200 μL. The solution was immediately transferred to a clean HPLC vial to monitor the reaction progress and incubated at room temperature in the dark. The reaction was analyzed by HPLC (Pursuit 200 Å C18, 4.6×150 mm, 10 μm particles, 1 mL/min flow rate, eluent: isocratic 0% MeCN/H2O+0.1% TFA (1 minute), gradient 0→100% MeCN/H2O+0.1% TFA (14 minutes), isocratic 100% MeCN/H2O+0.1% TFA (1 minute)) at each time point (0, 1, 2, and 4 hours) and quantified using its absorbance at 280 nm.

[8] = Cross reactivity: hydroxylamine with trans-cyclooctene 19, aldehyde 20, cyclopropene 21, alkyne 22; assay type: physicochemical
Experimental: The reaction mixtures were analyzed by ^1H NMR spectroscopy.

T1 sequence (P00698 19-147): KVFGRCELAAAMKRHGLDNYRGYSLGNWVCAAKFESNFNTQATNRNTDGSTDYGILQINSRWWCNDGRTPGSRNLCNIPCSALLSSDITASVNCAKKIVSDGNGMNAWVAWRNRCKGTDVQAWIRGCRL

SMILES: OCCCCCC#CCl [6′, 7-chlorohept-6-yn-1-ol]
time to completion of retro-Cope elimination [1]: ~24 h

SMILES: O=C(NCCOCCOCCCCCCCl)OCCOC(F)(F)C#CCl [21′, 2-((3-chloro-1,1-difluoroprop-2-yn-1-yl)oxy)ethyl (2-(2-((6-chlorohexyl)oxy)ethoxy)ethyl)carbamate]
live cell labeling (TAMRA signal) [2]: localized at the cell surface and co-localized with the GFP signal of transfected cells

SMILES: CC[N+]([O-])(CC)/C1=C/C(Oc2ccc([N+](=O)[O-])cc2)CCCCC1 (stereo not shown) [32″, (E)-N,N-Diethyl-3-(4-nitrophenoxy)cyclooct-1-en-1-amine oxide]
time to complete reduction / conversion of enamine N-oxide [3]: ≤ 4 min

SMILES: CC[N+]([O-])(CC)/C1=C/C(Sc2ccc([N+](=O)[O-])cc2)CCCCC1 (stereo not shown) [38″, (E)-N,N-Diethyl-3-((4-nitrophenyl)thio)cyclooct-1-en-1-amine oxide]
time to complete reduction / conversion of enamine N-oxide [3]: ≤ 4 min

SMILES: CC[C@H](C)[C@@H]([C@@H](CC(=O)N1CCCC1[C@H](OC)[C@@H](C)C(=O)N[C@H](C)[C@@H](O)c1ccccc1)OC)N(C)C(=O)[C@@H](NC(=O)[C@@H](NC)C(C)C)C(C)C (stereo partly shown) [MMAE, monomethyl auristatin E]
IC50 [4]: 0.154 nM | IC50 [5]: 0.75 nM

cleavage of 6″conj at 5 μM diboron reagent [6]: reach completion by 1 h
SMILES: OB(O)B(O)O [Tetrahydroxydiboron, tetrahydroxydiboron]

SMILES: CCN(O)CC [compound 1, N,N-diethylhydroxylamine]
reaction under CuAAC conditions [7]: No reaction was observed | reactivity with strained alkenes ([8]; 5 mM hydroxylamine with 5 mM cyclopropene 21 or trans-cyclooctene 19, d3-acetonitrile): proved unreactive | cross-reactivity with 19, 20, 21 or 22 ([8]; CD3CN, 1 hour, room temperature, 1H NMR): No change in the spectra was observed
